{
  "source": "patent US10962508B2",
  "about": "“Ultrasound-based method and related system to evaluate hemostatic function of whole blood” (University of Virginia Patent Foundation, priority 2009, dated 2021)",
  "format_in_all_cases": "cell-based, human",
  "key": {"[1]": {"test_system": "fibrin polymerization in whole blood", "assay": "Sonorheometry of whole blood: coagulation plasma factors and fibrin polymerization (GPRP titration)", "conditions": "kaolin-activated citrated whole blood, 5 volunteers; GPRP 0, 1, 2, 4, 8 mM", "protocol": "(§1) Blood samples were obtained from a peripheral vein of the arm of a patient into six 1.8 ml Vacutainers™ (Becton Dickinson, Franklin Lakes, N.J.) containing 3.2% (0.105M) sodium citrate to prevent coagulation within the tubes. The first tube was discarded, while the remaining tubes were placed on a rocker table and analyzed sequentially starting thirty minutes after the draw. For all the experiments described here, samples were obtained from a total of eight volunteers (four male and four female) with age range of twenty-three to thirty years (mean and standard deviation of 25.75±3.3 years) and with no history of thrombotic or hemorrhagic disorders. Ultrasound pulses having 10 Mhz center frequency were applied, PRF was adaptively adjusted with the range of about 25 Hz to about 12.8 kHz. Automated measurements having a one second acquisition time were performed every six seconds.\n(§2) In a typical experiment, 1 ml of citrated blood was pipetted into a 4 ml clear polystyrene cuvette 142 along with 0.5 mg of kaolin activator to start coagulation through activation of the intrinsic pathway and 62 μl of 0.2M CaCl2 to reverse the anticoagulant effect of the sodium citrate. Other reagents were also added as required by the specific study performed. Phosphate Buffer Saline (PBS) solution was added to maintain identical blood dilution. Sonorheometry data acquisition was initiated one minute after all the reagents were pipetted into the sample, and measurements were performed every six seconds.\nGly-Pro-Arg-Pro (GPRP) was obtained from Calbiochem (EMD Chemicals Inc., Gibbstown, N.J.) with 99.1% purity as determined by HPLC. GPRP was dissolved in PBS into 100 mM stock. Kaolin was obtained in powder form (Sigma Aldrich, St. Louis, Mo.) and suspended in sterile sodium chloride solution (Becton Dickinson, Franklin Lakes, N.J.). Monoclonal antibody abciximab (ReoPro®, Eli Lilly and Company, Indianapolis, Ind.) was obtained in a concentration of 2 mg/ml. The original solution was diluted by a factor of five by adding 200 μL of PBS into 50 μl of the original ReoPro solution. The serine protease abbokinase (urokinase-type Plasminogen Activator, or uPA, Hyphen Biomed, Neuville-sur-Oise, France) was obtained in a concentration of 1 unit/μl.\n(§3) The raw ultrasound data were transferred from the custom PCB 110 to the laptop computer 150 through USB interface 112 and analyzed in MATLAB (MathWorks Inc., Natick, Mass.). […]\n(§4) The sonorheometry parameters were calculated by fitting values 20 T to a sigmoidal curve 602 and evaluating the first derivative 30 of the curve 602, as shown in FIG. 8. For example, the clotting times TC1 and TC2 were calculated based on a threshold value of the derivative curve (20% of the minimum value), whereas the clotting slope CFR is the minimum of the derivative curve. […]"}, "[2]": {"test_system": "platelet aggregation in whole blood", "assay": "Sonorheometry of whole blood: assessment of platelet function (abciximab titration)", "protocol": "as §1\nas §2, with “Sonorheometry data acquisition was initiated one minute after all the reagents were pipetted into the sample, and measurements were performed every six seconds.” left out\n(§5) Gly-Pro-Arg-Pro (GPRP) was obtained from Calbiochem (EMD Chemicals Inc., Gibbstown, N.J.) with 99.1% purity as determined by HPLC. […]\nas §3, §4"}, "[3]": {"test_system": "fibrinolysis of whole blood clot", "assay": "Sonorheometry of whole blood: assessment of fibrinolytic proteins (urokinase titration)", "conditions": "urokinase 0, 100, 150, 200 Units per ml of blood", "protocol": "as §1\nas §2, with “Sonorheometry data acquisition was initiated one minute after all the reagents were pipetted into the sample, and measurements were performed every six seconds.” left out\nas §5, §3, §4"}, "[4]": {"conditions": "kaolin-activated citrated whole blood"}},
  "note": "Entries after “also recorded” stand apart in the source; their conditions may differ.",
  "data": [
    {"substance": "Gly-Pro-Arg-Pro [GPRP]", "values": [
      {"measurement": "clot formation rate CFR (rate of fibrin polymerization)", "setting": "[1]", "result": "decreased"},
      {"measurement": "final clotting time TC2", "setting": "[1]", "result": "increase with the concentration of GPRP"},
      {"measurement": "initial clotting time TC1", "setting": "[1]", "result": "increase with the concentration of GPRP"},
      {"measurement": "stiffness S (final stiffness of the formed clot)", "setting": "[1]", "result": "decreased"}
    ]},
    {"substance": "abciximab: monoclonal antibody; inhibitor of platelet aggregation blocking the IIb/IIIa receptor", "values": [
      {"measurement": "other parameters describing the dynamics of clot formation and dissolution", "setting": "[2]; abciximab 0, 2, 4, 6, 8, 12 μg/ml", "result": "did not change significantly"},
      {"measurement": "variation of final clot stiffness across the concentrations used", "setting": "[2]; abciximab 0 to 12 μg/ml", "result": "varied by over one order of magnitude"},
      {"measurement": "stiffness SMAX", "setting": "[2]; kaolin-activated citrated whole blood, five individuals, abciximab 0, 2, 4, 6, 8, 12 μg/ml", "result": "reduces the stiffness SMAX yielding a softer clot"}
    ]},
    {"substance": "urokinase", "values": [
      {"measurement": "clot lysis time TL1", "setting": "[3]; [4]", "result": "decreased as a function of urokinase concentration"},
      {"measurement": "clot lysis time TL2", "setting": "[3]; [4]", "result": "decreased as a function of urokinase concentration"},
      {"measurement": "return of blood sample to a viscous fluid (clot dissolution)", "setting": "[3]", "result": "returned to a viscous fluid significantly faster with increasing concentrations of urokinase; also recorded: rapidly dissolved the blood clot and restored the original mechanical conditions prior to clot formation"}
    ]}
  ]
}
